Reference: patent US20240083897A1, “GCN2 MODULATING COMPOUNDS AND USES THEREOF” (HiberCell, Inc., priority 2021, published 2024)
Where two headings read alike, the source gives them in different places.

Biological target: GCN2 (Homo sapiens (Human), UniProt Q9P2K8)
Assay: TR-FRET biochemical assay for inhibition of GCN2
[1] = GCN2 2 nM, 100 nM GFP-eIF2a, 150 μM ATP, TR-FRET

GCN2, sequence (Q9P2K8 whole entry): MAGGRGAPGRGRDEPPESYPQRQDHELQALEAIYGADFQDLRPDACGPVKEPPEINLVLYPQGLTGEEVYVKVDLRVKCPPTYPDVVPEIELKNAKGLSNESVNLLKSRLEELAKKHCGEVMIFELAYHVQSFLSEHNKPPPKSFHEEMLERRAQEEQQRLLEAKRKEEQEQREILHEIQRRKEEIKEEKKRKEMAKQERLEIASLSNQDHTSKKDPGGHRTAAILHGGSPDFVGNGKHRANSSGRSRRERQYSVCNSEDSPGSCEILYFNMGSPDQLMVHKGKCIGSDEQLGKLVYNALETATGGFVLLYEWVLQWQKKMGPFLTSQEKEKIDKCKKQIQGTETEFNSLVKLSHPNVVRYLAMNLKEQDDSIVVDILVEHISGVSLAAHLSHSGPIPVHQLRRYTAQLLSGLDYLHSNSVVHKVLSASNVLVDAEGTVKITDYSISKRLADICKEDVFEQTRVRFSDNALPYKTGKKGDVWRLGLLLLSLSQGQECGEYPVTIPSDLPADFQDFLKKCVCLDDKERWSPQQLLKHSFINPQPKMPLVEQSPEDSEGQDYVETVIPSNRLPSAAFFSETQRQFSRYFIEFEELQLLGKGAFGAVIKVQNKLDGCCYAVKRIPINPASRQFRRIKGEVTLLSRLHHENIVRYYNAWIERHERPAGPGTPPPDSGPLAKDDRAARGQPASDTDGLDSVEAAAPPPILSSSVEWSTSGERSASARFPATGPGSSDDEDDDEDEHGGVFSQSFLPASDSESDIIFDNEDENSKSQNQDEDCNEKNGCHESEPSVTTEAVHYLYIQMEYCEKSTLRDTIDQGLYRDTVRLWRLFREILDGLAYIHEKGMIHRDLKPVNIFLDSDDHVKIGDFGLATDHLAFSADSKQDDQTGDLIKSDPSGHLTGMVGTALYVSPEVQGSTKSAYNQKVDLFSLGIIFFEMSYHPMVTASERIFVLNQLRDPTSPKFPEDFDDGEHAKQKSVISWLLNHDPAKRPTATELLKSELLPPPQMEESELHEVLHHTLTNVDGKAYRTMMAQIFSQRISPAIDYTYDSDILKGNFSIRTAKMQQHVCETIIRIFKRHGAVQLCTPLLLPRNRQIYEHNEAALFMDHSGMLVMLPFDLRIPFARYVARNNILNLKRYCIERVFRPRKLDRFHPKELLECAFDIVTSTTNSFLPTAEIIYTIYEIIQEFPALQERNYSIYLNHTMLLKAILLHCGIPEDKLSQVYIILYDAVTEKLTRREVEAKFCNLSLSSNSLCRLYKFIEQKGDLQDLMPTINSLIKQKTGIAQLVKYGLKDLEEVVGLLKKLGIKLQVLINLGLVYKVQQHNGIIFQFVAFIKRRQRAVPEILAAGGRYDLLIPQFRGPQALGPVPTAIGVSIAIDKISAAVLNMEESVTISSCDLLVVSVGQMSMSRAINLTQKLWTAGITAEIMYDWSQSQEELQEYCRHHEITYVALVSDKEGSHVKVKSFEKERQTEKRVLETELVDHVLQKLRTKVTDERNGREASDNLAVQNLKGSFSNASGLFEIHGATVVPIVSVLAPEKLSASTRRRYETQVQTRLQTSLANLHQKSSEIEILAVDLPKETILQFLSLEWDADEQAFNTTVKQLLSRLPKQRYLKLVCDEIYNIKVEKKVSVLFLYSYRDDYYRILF

COc1ncc(Cl)cc1S(=O)(=O)Nc1ccc(F)c([C@H]2CCn3c(cnc3-c3ncc[nH]3)C2)c1F [Compound 64-2, (S)—N-(3-(3-(1H-imidazol-2-yl)-5,6,7,8-tetrahydroimidazo[1,5-a]pyridin-7-yl)-2,4-difluorophenyl)-5-chloro-2-methoxypyridine-3-sulfonamide] gave an IC50 [1] of under 50 nM.

With Cc1ncc(Cl)cc1S(=O)(=O)Nc1ccc(F)c(-c2ccc3c(-c4nnc[nH]4)ncn3c2)c1F [Compound 65, 5-chloro-N-[2,4-difluoro-3-[1-(4H-1,2,4-triazol-3-yl)imidazo[1,5-a]pyridin-6-yl]phenyl]-2-methylpyridine-3-sulfonamide] the IC50 [1] was under 50 nM.

For COc1ncc(C#N)cc1S(=O)(=O)Nc1ccc(F)c(-c2ccc3c(-c4nc5ccccc5[nH]4)ncn3c2)c1F [Compound 66, N-[3-[1-(1H-1,3-benzodiazol-2-yl)imidazo[1,5-a]pyridin-6-yl]-2,4-difluorophenyl]-5-cyano-2-methoxypyridine-3-sulfonamide], the IC50 [1] was under 50 nM.

CNC(=O)c1ncn2c1CC[C@H](c1c(F)ccc(NS(=O)(=O)c3cc(C#N)cnc3OC)c1F)C2 [Compound 68-1, (R)-6-(3-((5-cyano-2-methoxypyridine)-3-sulfonamido)-2,6-difluorophenyl)-N-methyl-5,6,7,8-tetrahydroimidazo[1,5-a]pyridine-1-carboxamide] showed an IC50 of 50 to 500 nM.

CNC(=O)c1ncn2c1CC[C@@H](c1c(F)ccc(NS(=O)(=O)c3cc(C#N)cnc3OC)c1F)C2 [Compound 68-2, (S)-6-(3-((5-cyano-2-methoxypyridine)-3-sulfonamido)-2,6-difluorophenyl)-N-methyl-5,6,7,8-tetrahydroimidazo[1,5-a]pyridine-1-carboxamide] gave an IC50 of 50 to 500 nM.

For COc1ncc(C#N)cc1S(=O)(=O)Nc1ccc(F)c(-c2cn3cnc(-c4ncc[nH]4)c3cn2)c1F [Compound 69, 5-cyano-N-[2,4-difluoro-3-[1-(1H-imidazol-2-yl)imidazo[1,5-a]pyrazin-6-yl]phenyl]-2-methoxypyridine-3-sulfonamide], the IC50 [1] was under 50 nM.

COc1ncc(F)cc1S(=O)(=O)Nc1ccc(F)c(-c2ccc3c(-c4nnc[nH]4)ncn3c2)c1F [Compound 70, N-[2,4-difluoro-3-[1-(4H-1,2,4-triazol-3-yl)imidazo[1,5-a]pyridin-6-yl]phenyl]-5-fluoro-2-methoxypyridine-3-sulfonamide] showed an IC50 [1] of under 50 nM.

With COc1ncc(C#N)cc1S(=O)(=O)Nc1ccc(F)c(-c2ccc3c(-c4nnc[nH]4)ncn3c2)c1F [Compound 71, 5-cyano-N-[2,4-difluoro-3-[1-(4H-1,2,4-triazol-3-yl)imidazo[1,5-a]pyridin-6-yl]phenyl]-2-methoxypyridine-3-sulfonamide] the IC50 [1] was under 50 nM.

Compound Cc1ncc(F)cc1S(=O)(=O)Nc1ccc(F)c(-c2ccc3c(-c4nnc[nH]4)ncn3c2)c1F [Compound 72, N-[2,4-difluoro-3-[1-(4H-1,2,4-triazol-3-yl)imidazo[1,5-a]pyridin-6-yl]phenyl]-5-fluoro-2-methylpyridine-3-sulfonamide] has an IC50 [1] of under 50 nM.

For COc1ncc(Cl)cc1S(=O)(=O)Nc1ccc(F)c([C@@H]2Cn3cnc(-c4ncc[nH]4)c3CN2C)c1F [Compound 73-1, 5-chloro-N-[2,4-difluoro-3-[(6R)-1-(1H-imidazol-2-yl)-7-methyl-5H,6H,8H-imidazo[1,5-a]pyrazin-6-yl]phenyl]-2-methoxypyridine-3-sulfonamide], the IC50 was 50 to 500 nM.

Compound COc1ncc(Cl)cc1S(=O)(=O)Nc1ccc(F)c([C@H]2Cn3cnc(-c4ncc[nH]4)c3CN2C)c1F [Compound 73-2, 5-chloro-N-[2,4-difluoro-3-[(6S)-1-(1H-imidazol-2-yl)-7-methyl-5H,6H,8H-imidazo[1,5-a]pyrazin-6-yl]phenyl]-2-methoxypyridine-3-sulfonamide] has an IC50 of 50 to 500 nM.

For COc1ncc(F)cc1S(=O)(=O)Nc1ccc(F)c(-c2ccc3c(-n4cnnn4)ncn3c2)c1F [Compound 74, N-[2,4-difluoro-3-[1-(1,2,3,4-tetrazol-1-yl)imidazo[1,5-a]pyridin-6-yl]phenyl]-5-fluoro-2-methoxypyridine-3-sulfonamide], the IC50 [1] was under 50 nM.

Compound COc1ncc(C#N)cc1S(=O)(=O)Nc1ccc(F)c(-c2ccc3c(-n4cnnn4)ncn3c2)c1F [Compound 75, 5-cyano-N-[2,4-difluoro-3-[1-(1,2,3,4-tetrazol-1-yl)imidazo[1,5-a]pyridin-6-yl]phenyl]-2-methoxypyridine-3-sulfonamide] has an IC50 [1] of under 50 nM.

Work on Cc1ncc(F)cc1S(=O)(=O)Nc1ccc(F)c(-c2ccc3c(-n4cnnn4)ncn3c2)c1F [Compound 76, N-[2,4-difluoro-3-[1-(1,2,3,4-tetrazol-1-yl)imidazo[1,5-a]pyridin-6-yl]phenyl]-5-fluoro-2-methylpyridine-3-sulfonamide] yielded an IC50 [1] of under 50 nM.

With Cc1ncc(Cl)cc1S(=O)(=O)Nc1ccc(F)c(-c2ccc3c(-n4cnnn4)ncn3c2)c1F [Compound 77, 5-chloro-N-[2,4-difluoro-3-[1-(1,2,3,4-tetrazol-1-yl)imidazo[1,5-a]pyridin-6-yl]phenyl]-2-methylpyridine-3-sulfonamide] the IC50 [1] was under 50 nM.

COc1ncc(F)cc1S(=O)(=O)Nc1ccc(F)c(-c2cn3cnc(-c4ncc[nH]4)c3cn2)c1F [Compound 78, N-[2,4-difluoro-3-[1-(1H-imidazol-2-yl)imidazo[1,5-a]pyrazin-6-yl]phenyl]-5-fluoro-2-methoxypyridine-3-sulfonamide] was tested, and the IC50 [1] was under 50 nM.

In the case of COc1ncc(Cl)cc1S(=O)(=O)Nc1ccc(F)c([C@H]2CCc3c(-c4ncc[nH]4)ncn3C2)c1F [Compound 79-1, 5-chloro-N-[2,4-difluoro-3-[(6R)-1-(1H-imidazol-2-yl)-5H,6H,7H,8H-imidazo[1,5-a]pyridin-6-yl]phenyl]-2-methoxypyridine-3-sulfonamide], the IC50 [1] is reported as under 50 nM.

For COc1ncc(Cl)cc1S(=O)(=O)Nc1ccc(F)c([C@@H]2CCc3c(-c4ncc[nH]4)ncn3C2)c1F [Compound 79-2, 5-chloro-N-[2,4-difluoro-3-[(6S)-1-(1H-imidazol-2-yl)-5H,6H,7H,8H-imidazo[1,5-a]pyridin-6-yl]phenyl]-2-methoxypyridine-3-sulfonamide], the IC50 [1] was under 50 nM.

Compound Cc1ncc(F)cc1S(=O)(=O)Nc1ccc(F)c([C@H]2CCc3c(-c4ncc[nH]4)ncn3C2)c1F [Compound 80-1, N-[2,4-difluoro-3-[(6R)-1-(1H-imidazol-2-yl)-5H,6H,7H,8H-imidazo[1,5-a]pyridin-6-yl]phenyl]-5-fluoro-2-methylpyridine-3-sulfonamide] has an IC50 [1] of under 50 nM.

Cc1ncc(F)cc1S(=O)(=O)Nc1ccc(F)c([C@@H]2CCc3c(-c4ncc[nH]4)ncn3C2)c1F [Compound 80-2, N-[2,4-difluoro-3-[(6S)-1-(1H-imidazol-2-yl)-5H,6H,7H,8H-imidazo[1,5-a]pyridin-6-yl]phenyl]-5-fluoro-2-methylpyridine-3-sulfonamide] showed an IC50 [1] of under 50 nM.

In the case of COc1ncc(F)cc1S(=O)(=O)Nc1ccc(F)c([C@H]2CCc3c(-c4ncc[nH]4)ncn3C2)c1F [Compound 81-1, N-[2,4-difluoro-3-[(6R)-1-(1H-imidazol-2-yl)-5H,6H,7H,8H-imidazo[1,5-a]pyridin-6-yl]phenyl]-5-fluoro-2-methoxypyridine-3-sulfonamide], the IC50 [1] is reported as under 50 nM.

COc1ncc(F)cc1S(=O)(=O)Nc1ccc(F)c([C@@H]2CCc3c(-c4ncc[nH]4)ncn3C2)c1F [Compound 81-2, N-[2,4-difluoro-3-[(6S)-1-(1H-imidazol-2-yl)-5H,6H,7H,8H-imidazo[1,5-a]pyridin-6-yl]phenyl]-5-fluoro-2-methoxypyridine-3-sulfonamide] showed an IC50 [1] of under 50 nM.

COc1ncc(C#N)cc1S(=O)(=O)Nc1ccc(F)c([C@H]2CCc3c(-c4ncc[nH]4)ncn3C2)c1F [Compound 82-1, 5-cyano-N-[2,4-difluoro-3-[(6R)-1-(1H-imidazol-2-yl)-5H,6H,7H,8H-imidazo[1,5-a]pyridin-6-yl]phenyl]-2-methoxypyridine-3-sulfonamide] gave an IC50 of 50 to 500 nM.

COc1ncc(C#N)cc1S(=O)(=O)Nc1ccc(F)c([C@@H]2CCc3c(-c4ncc[nH]4)ncn3C2)c1F [Compound 82-2, 5-cyano-N-[2,4-difluoro-3-[(6S)-1-(1H-imidazol-2-yl)-5H,6H,7H,8H-imidazo[1,5-a]pyridin-6-yl]phenyl]-2-methoxypyridine-3-sulfonamide] was tested, and the IC50 was 50 to 500 nM.

With Cc1ncc(Cl)cc1S(=O)(=O)Nc1ccc(F)c(-c2cn3cnc(-c4ncc[nH]4)c3cn2)c1F [Compound 83, 5-chloro-N-[2,4-difluoro-3-[1-(1H-imidazol-2-yl)imidazo[1,5-a]pyrazin-6-yl]phenyl]-2-methylpyridine-3-sulfonamide] the IC50 [1] was under 50 nM.

With COc1ncc(Cl)cc1S(=O)(=O)Nc1ccc(F)c(-c2ccc3c(-c4ncc[nH]4)ncn3n2)c1F [Compound 85, 5-chloro-N-[2,4-difluoro-3-[5-(1H-imidazol-2-yl)imidazo[1,5-b]pyridazin-2-yl]phenyl]-2-methoxypyridine-3-sulfonamide] the IC50 [1] was under 50 nM.

In the case of COc1ncc(Cl)cc1S(=O)(=O)Nc1ccc(F)c(-c2ccc3c(-c4nnc(C5CC5)[nH]4)ncn3c2)c1F [Compound 87, 5-chloro-N-[3-[1-(5-cyclopropyl-4H-1,2,4-triazol-3-yl)imidazo[1,5-a]pyridin-6-yl]-2,4-difluorophenyl]-2-methoxypyridine-3-sulfonamide], the IC50 [1] is reported as under 50 nM.

Compound COc1ncc(Cl)cc1S(=O)(=O)Nc1ccc(F)c(-c2ccc3c(-c4nnc(C(C)C)[nH]4)ncn3c2)c1F [Compound 88, 5-chloro-N-[2,4-difluoro-3-[1-(5-isopropyl-4H-1,2,4-triazol-3-yl)imidazo[1,5-a]pyridin-6-yl]phenyl]-2-methoxypyridine-3-sulfonamide] has an IC50 [1] of under 50 nM.

CNC(=O)c1ncn2cc(-c3c(F)ccc(NS(=O)(=O)c4cc(F)cnc4OC)c3F)ncc12 [Compound 90, 6-[2,6-difluoro-3-(5-fluoro-2-methoxypyridine-3-sulfonamido)phenyl]-N-methylimidazo[1,5-a]pyrazine-1-carboxamide] was tested, and the IC50 was 50 to 500 nM.

In the case of CNC(=O)c1ncn2cc(-c3c(F)ccc(NS(=O)(=O)c4cc(F)cnc4C)c3F)ncc12 [Compound 91, 6-[2,6-difluoro-3-(5-fluoro-2-methylpyridine-3-sulfonamido)phenyl]-N-methylimidazo[1,5-a]pyrazine-1-carboxamide], the IC50 is reported as 50 to 500 nM.
